Laboratory results: patent publication US8663928B2, “Method for the detection of post-translational modifications” (CIS BIO International, priority 2006, dated 2014)

Key:
Cam kinase II = biological target: T1, Cam kinase II (Homo sapiens, UniProt Q13557); test: TR-FRET measurement of the phosphorylation of a generic protein substrate by Cam kinase II in co-transfected HEK293 cells; format: cell-based; settings: FIG. 2; ionomycin 1 μM, 5 min; HEK293 co-transfected with substrate plasmid and CamKII delta
T1 construct: expressed in transfected cells; host or cells: HEK293
Method: 8000 cells HEK293 are either transfected with increasing quantities of plasmid coding for the substrate alone (Identical to Example 1), or co-transfected with the same quantities of plasmid coding for the substrate and 25 ng of CamKII 6-pcDNA 3.1 (plasmid coding for Cam kinase II). The transfection is carried out as described in Example 1.
The cells are then cultured for 48 hours at 37° C. in DMEM medium, comprising 10% fcetal calf serum and 1% antibiotic and antifungal, then for 16 hours in the same medium without serum.
The cells are stimulated for 5 min in the presence of ionomycin 1 μM (Sigma), and lysed as described above.
The phosphorylation of the protein substrate is detected as described in Example 1.

Akt1 = biological target: T2, Akt1 (Homo sapiens, UniProt P31749); test: TR-FRET measurement of the phosphorylation of a generic protein substrate by Akt1 in co-transfected HEK293 cells, with total protein substrate; format: cell-based
T2 construct: expressed in transfected cells; host or cells: HEK293
Method: 8000 HEK293 cells (ATCC) are either transfected with increasing quantities of plasmid coding for the substrate alone, or co-transfected with the same quantities of plasmid coding for the substrate and 25 ng of Akt1-pcDNA 3.1 (Invitrogen Corp. Cat No. V790-20) The co-transfection is carried out in the presence of Lipofectamine 2000 (Invitrogen corp. Cat No. 11668-019) and OPTI-MEM medium (Gibco Cat No. 31985).
The cells are then cultured for 48 hours at 37° C. in 25 μl of DMEM medium (Gibco Cat No. 11965-092), to which 10% FCS (Hyclone Cat No. SV30014-03) and 1% antibiotic and antifungal (Gibco Cat No. 15240-062) are added in 384-well plates (Proxiplate 384, Perkin-Elmer Cat No. 6006280).
The cells are lysed in 50 mM Hepes buffer, pH7, containing 0.1% BSA, 20 mM EDTA, 0.8 M potassium fluoride and 2% TRITON X-100® (octylphenol ethyelene oxide condensate)). This same buffer contains 1.8 ng of phosphospecific antibodies (STK antibody, Upstate Cat No. 35-002) conjugated with the donor (europium cryptate) and 40 ng of anti-FLAG conjugated with the acceptor (cross-linked allophycocyanin, XL 665, CIS bio international Cat No. 61 FG2XLA).
The plate is incubated for 1 hour at ambient temperature before time-resolved reading.
The FRET signals are measured on an Acquest 384 fluorimeter (Molecular Device) in TR-FRET mode at 620 nm (emission wavelength of rare earth cryptate) and 665 nm (emission wavelength of allophycocyanin) after excitation by a flash lamp with a bandwidth comprised between 330 and 380 nm. The ratio between the fluorescence emitted at 665 nm (fluorescence of the acceptor) and the fluorescence emitted at 620 nm (fluorescence of the donor) (Ratio 665/620) represents the FRET occurring between the donor (europium cryptate) and the acceptor (Allophycocyanin). […]
The cells are co-transfected and cultured as described in Example 1. […] The cells are then lysed and the phosphorylated protein substrate detected as described in Example 1.
In parallel, in a second well, cells are treated in identical manner. After lysis, the total quantity of protein substrate is measured using an anti-c-myc antibody coupled with europium cryptate (2.9 ng/well) (CIS bio international Cat No. 61MYCKLA) and an anti-FLAG antibody coupled with allophycocyanin (40 ng/well).
The cells are co-transfected with a plasmid coding for the protein substrate labelled by the c-myc and flag tags and with a plasmid coding for Akt1, as described in Example 1. […] In this case the lysate is first placed in the presence of a phosphospecific antibody, coupled with tris-bipyridine europium cryptate (CIS bio international, formula below), and an anti-FLAG antibody coupled with allophycocyanin (in the same quantities as those described in Example 1). […]

T2 sequence (P31749 whole entry, species assumed): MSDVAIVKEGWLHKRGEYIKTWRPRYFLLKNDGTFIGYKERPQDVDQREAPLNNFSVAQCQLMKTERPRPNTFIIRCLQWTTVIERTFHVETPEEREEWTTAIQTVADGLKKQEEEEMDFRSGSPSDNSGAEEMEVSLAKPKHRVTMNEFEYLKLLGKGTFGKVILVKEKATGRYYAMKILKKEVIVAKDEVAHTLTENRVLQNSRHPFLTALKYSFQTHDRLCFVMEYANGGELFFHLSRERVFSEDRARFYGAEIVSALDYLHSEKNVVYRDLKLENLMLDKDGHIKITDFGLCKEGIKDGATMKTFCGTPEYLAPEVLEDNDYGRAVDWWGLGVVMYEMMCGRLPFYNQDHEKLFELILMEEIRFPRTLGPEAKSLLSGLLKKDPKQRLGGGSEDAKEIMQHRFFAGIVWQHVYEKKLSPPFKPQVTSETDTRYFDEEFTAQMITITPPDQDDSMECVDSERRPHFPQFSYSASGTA
T1 sequence (Q13557 whole entry): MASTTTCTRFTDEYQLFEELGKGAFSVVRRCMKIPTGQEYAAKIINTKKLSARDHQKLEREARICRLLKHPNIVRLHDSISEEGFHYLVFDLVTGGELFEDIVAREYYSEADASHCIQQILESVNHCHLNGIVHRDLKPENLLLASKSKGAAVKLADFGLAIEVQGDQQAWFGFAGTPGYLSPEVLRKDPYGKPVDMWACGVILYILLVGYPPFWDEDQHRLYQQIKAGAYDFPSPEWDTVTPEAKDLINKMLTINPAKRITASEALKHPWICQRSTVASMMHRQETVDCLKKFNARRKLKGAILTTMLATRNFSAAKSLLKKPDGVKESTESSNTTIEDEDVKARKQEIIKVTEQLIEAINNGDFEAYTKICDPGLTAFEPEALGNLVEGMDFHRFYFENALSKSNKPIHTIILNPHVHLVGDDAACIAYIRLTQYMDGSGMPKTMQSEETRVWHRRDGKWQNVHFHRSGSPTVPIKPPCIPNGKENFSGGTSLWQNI

Row | Structure (SMILES) | signal of phosphorylated protein substrate after stimulation (Cam kinase II) | signal corresponding to the phosphorylated protein substrate (Akt1; FIG. 3, HEK293 co-transfected with substrate plasmid and Akt1, 1 hour incubation with increasing concentrations, separate wells) | signal corresponding to the total protein substrate (Akt1; FIG. 3, anti-c-myc cryptate/anti-FLAG allophycocyanin, second well, increasing concentrations) | signal corresponding to the phosphorylated protein substrate (not standardized) (Akt1; FIG. 4, 0.2 nM, 20 nM, 2 μM, separate wells or single well with FRET suppressing agent) | ratio of phosphorylated protein substrate: total protein substrate (Akt1; FIG. 6, signal standardized by total protein substrate signal, 0.2 nM, 20 nM, 2 μM)
1 | C[C@H](CCC(=O)O)C[C@H](C)C[C@H](C)C(=O)/C=C(\O)[C@H](C)C[C@H](C)C/C=C/[C@@H](C)[C@@H](O)[C@@H](C)[C@@H](O)C[C@@H]1CC[C@@](C)([C@H]2CC[C@@](C)([C@@H](C)O)O2)O1 [ionomycin] | much greater than in its absence | – | – | – | –
2 | CN[C@@H]1C[C@H]2O[C@@](C)([C@@H]1OC)n1c3ccccc3c3c4c(c5c6ccccc6n2c5c31)C(=O)NC4 [staurosporine] | – | reduces with increasing concentrations | remains constant whatever the dose of inhibitor | sensitive to staurosporine only in the case where it is added to the measurement medium at high concentrations (2 μM) | inhibition of the phosphorylation of the protein substrate
